Data as given in patent US9346810B2, “Pyrrolopyrimidine compounds and uses thereof” (HUTCHISON MEDIPHARMA LIMITED, priority 2010, dated 2016).
Read-outs that look alike come from different tables or passages of the source.

What was measured:
Format in all cases: biochemical
[1] = target: Recombinant human JAK1 catalytic domain (Homo sapiens (Human), UniProt P23458); experiment: JAK1 kinase assay (Z'-LYTE, Tyr 6 Peptide); conditions: read-out: IC50 in JAK1 kinase assay
Method: (§1) JAK1/2/3 kinase assay are performed in vitro using Kit-Tyr 6 Peptide (Invitrogen, Cat. No. PV4122). TYK2 kinase assay are performed in vitro using Z′-LYTE™ Kinase Assay Kit-Tyr 3 Peptide (Invitrogen, Cat. No. PV3192). […] All compounds are initially tested at 8 different concentrations (1 μM down to 0.0003 μM) using a 1:3 serial dilution scheme.

[2] = target: Recombinant human JAK2 catalytic domain (Homo sapiens (Human), UniProt O60674); experiment: JAK2 kinase assay (Z'-LYTE, Tyr 6 Peptide)
Sequence of Recombinant human JAK2 catalytic domain (O60674 849-1124): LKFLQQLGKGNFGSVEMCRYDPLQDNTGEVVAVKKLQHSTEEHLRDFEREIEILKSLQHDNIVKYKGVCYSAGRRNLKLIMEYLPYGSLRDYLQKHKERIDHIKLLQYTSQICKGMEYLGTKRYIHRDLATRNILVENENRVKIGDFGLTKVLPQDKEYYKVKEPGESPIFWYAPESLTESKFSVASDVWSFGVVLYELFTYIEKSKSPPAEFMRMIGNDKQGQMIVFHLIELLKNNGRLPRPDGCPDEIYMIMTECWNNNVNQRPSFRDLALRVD
Method: as §1

[3] = target: Recombinant human JAK3 catalytic domain (Homo sapiens (Human), UniProt P52333); experiment: JAK3 kinase assay (Z'-LYTE, Tyr 6 Peptide)
Sequence of Recombinant human JAK3 catalytic domain (P52333 822-1111): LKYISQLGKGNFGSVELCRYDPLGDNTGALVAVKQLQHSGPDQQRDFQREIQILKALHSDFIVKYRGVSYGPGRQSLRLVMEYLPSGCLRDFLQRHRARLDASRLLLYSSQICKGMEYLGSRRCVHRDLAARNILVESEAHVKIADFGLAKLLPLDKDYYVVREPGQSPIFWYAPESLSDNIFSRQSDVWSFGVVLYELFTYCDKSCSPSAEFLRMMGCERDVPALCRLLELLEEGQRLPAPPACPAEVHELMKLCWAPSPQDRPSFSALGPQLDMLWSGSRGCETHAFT
Method: as §1

[4] = read-out: IC50 in JAK2 kinase assay
[5] = read-out: IC50 in JAK3 kinase assay

Sequence of Recombinant human JAK1 catalytic domain (P23458 875-1153): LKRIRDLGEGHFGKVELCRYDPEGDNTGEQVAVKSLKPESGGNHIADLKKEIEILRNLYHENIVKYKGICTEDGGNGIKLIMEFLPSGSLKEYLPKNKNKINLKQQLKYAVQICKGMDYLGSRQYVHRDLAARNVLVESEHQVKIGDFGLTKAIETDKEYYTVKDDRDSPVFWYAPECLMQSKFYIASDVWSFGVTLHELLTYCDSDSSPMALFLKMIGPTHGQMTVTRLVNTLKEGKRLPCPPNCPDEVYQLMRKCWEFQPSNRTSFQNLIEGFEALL

SMILES	IC50 [2, 4] [nM]	IC50 [3, 5] [nM]	also measured
C[C@H](O)CNS(=O)(=O)c1ccc(N(C)[C@@H]2CCN(c3ncnc4[nH]ccc34)C2)nc1 [Compound 245]			IC50 [1]: 1 to 100 nM
CN(c1ccc2[nH]c(=O)[nH]c2n1)[C@@H]1CCN(c2ncnc3[nH]ccc23)C1 [Compound 164, (R)-5-((1-(7H-pyrrolo[2,3-d]pyrimidin-4-yl)pyrrolidin-3-yl)(methyl)amino)-1H-Imidazo[4,5-b]pyridin-2(3H)-one]	1 to 100	100 to 1000	
CN(c1ccc(NS(=O)(=O)c2cccs2)cn1)[C@@H]1CCN(c2ncnc3[nH]ccc23)C1 [Compound 214]			IC50 [1]: 1 to 100 nM
CN(c1ncc(C#N)cc1Br)[C@@H]1CCN(c2ncnc3[nH]ccc23)C1 [Compound 99]	1 to 100	100 to 1000	
CN(c1ccc(F)cn1)[C@@H]1CCN(c2ncnc3[nH]ccc23)C1 [Compound 66]	1 to 100	1 to 100	
CN(c1ccc(C#N)nn1)[C@@H]1CCN(c2ncnc3[nH]ccc23)C1 [Compound 60]	1 to 100	100 to 1000	
CN(c1ccc(C#N)c2ccccc12)[C@@H]1CCN(c2ncnc3[nH]ccc23)C1 [Compound 111]	1 to 100	100 to 1000	
CCCN(c1ccc(C#N)cn1)[C@@H]1CCN(c2ncnc3[nH]ccc23)C1 [Compound 98]	1 to 100	100 to 1000	
COC[C@H](NC(=O)c1ccc(N(C)[C@@H]2CCN(c3ncnc4[nH]ccc34)C2)nc1)c1ccccc1 [Compound 209]	1 to 100	1 to 100	
N#Cc1ccc(N(C2CC2)[C@@H]2CCN(c3ncnc4[nH]ccc34)C2)nc1 [Compound 41]	1 to 100	100 to 1000	
CN(c1cccc(C#N)n1)[C@@H]1CCN(c2ncnc3[nH]ccc23)C1 [Compound 91]	1 to 100	100 to 1000	
CN(c1nc(Cl)nc2ccccc12)[C@@H]1CCN(c2ncnc3[nH]ccc23)C1 [Compound 79]	100 to 1000	100 to 1000	
CN(c1ncc(C#N)cc1[N+](=O)[O-])[C@@H]1CCN(c2ncnc3[nH]ccc23)C1 [Compound 96]	100 to 1000	100 to 1000	
C#Cc1ccc(N(C)[C@@H]2CCN(c3ncnc4[nH]ccc34)C2)nc1 [Compound 162, (R)—N-(1-(7H-pyrrolo[2,3-d]pyrimidin-4-yl)pyrrolidin-3-yl)-5-ethynyl-N-methylpyridin-2-amine]	1 to 100	1 to 100	
CN(c1ccc(C#N)cc1[N+](=O)[O-])[C@@H]1CCN(c2ncnc3[nH]ccc23)C1 [Compound 107]	100 to 1000	100 to 1000	
CN(c1ccc(C#N)cn1)[C@H]1CCN(c2ncnc3[nH]ccc23)C1 [Compound 102]	1 to 100	100 to 1000	
N#CCN(C1CCC1)[C@@H]1CCN(c2ncnc3[nH]ccc23)C1 [Compound 52]	100 to 1000		
CN(c1ccc(C(=O)Nc2ccccc2F)cn1)[C@@H]1CCN(c2ncnc3[nH]ccc23)C1 [Compound 192]	1 to 100		
CN(c1c(F)cc(C(=O)N[C@@H](CO)c2ccccc2)cc1F)[C@@H]1CCN(c2ncnc3[nH]ccc23)C1 [Compound 208]	1 to 100	1 to 100	
CN(c1ncc(Br)cc1C#N)[C@@H]1CCN(c2ncnc3[nH]ccc23)C1 [Compound 89]	100 to 1000		
CN(C(=O)c1ccc(N(C)[C@@H]2CCN(c3ncnc4[nH]ccc34)C2)nc1)c1ccc(F)cc1 [Compound 178]	100 to 1000		
CN(c1nc(Cl)c(C#N)cc1F)[C@@H]1CCN(c2ncnc3[nH]ccc23)C1 [Compound 87]	1 to 100	100 to 1000	
CN(c1ncc(Br)cn1)[C@@H]1CCN(c2ncnc3[nH]ccc23)C1 [Compound 94]	1 to 100	100 to 1000	
CN(c1ccc(C(=O)N[C@@H](CO)c2ccccc2)cn1)[C@@H]1CCN(c2ncnc3[nH]ccc23)C1 [Compound 176]	1 to 100		
CN(c1ccc(C(F)(F)F)nn1)[C@@H]1CCN(c2ncnc3[nH]ccc23)C1 [Compound 62]	1 to 100	100 to 1000	
CCS(=O)(=O)Nc1ccc(N(C)[C@@H]2CCN(c3ncnc4[nH]ccc34)C2)nc1 [Compound 210, (R)—N-(6-((1-(7H-pyrrolo[2,3-d]pyrimidin-4-yl)pyrrolidin-3-yl)(methyl)amino)pyridin-3-yl)ethanesulfonamide]			IC50 [2]: 1 to 100 nM; IC50 [3]: 100 to 1000 nM
CN(C(=O)CC(F)(F)F)[C@@H]1CCN(c2ncnc3[nH]ccc23)C1 [Compound 25]		100 to 1000	
CN(c1ccc(C#N)c(Br)c1)[C@@H]1CCN(c2ncnc3[nH]ccc23)C1 [Compound 114]	1 to 100	100 to 1000	
CN(c1ccc(C#N)cn1)[C@@H]1CCN(c2ncnc3[nH]ccc23)C1 [Compound 71]	1 to 100	100 to 1000	
C=CCN(C1CCCC1)[C@@H]1CCN(c2ncnc3[nH]ccc23)C1 [Compound 40]	1 to 100	100 to 1000	
